Earlier results, collected in patent publication US20030073580A1, “Composition for treating cells and method for qualitatively and quantitatively customizing the formulation thereof” (priority 2001, published 2003).
Like-named read-outs stand apart in the source and are kept apart here.

Test system: plant leaves
[1] = Sulfate 0.1 Mg SO4/L (0.0334 milligrams elemental S)
[2] = Sulfate 1.0 Mg SO4/L (0.3340 milligrams elemental S)
[3] = Sulfate 10.0 Mg SO4/L (3.3400 milligrams elemental S)
[4] = Sulfate 50.0 Mg SO4/L (16.7000 milligrams elemental S)
[5] = Sulfate 200.0 Mg SO4/L (66.8000 milligrams elemental S)

O=S(=O)(O)O [Sulfate]
Inorganic S [1]: 0.003 Percentage of Dry Weight
Leaf Dry Wt [1]: 1.1 g/plant
Nitrate N [1]: 1.39 Percentage of Dry Weight
Organic N [1]: 2.23 Percentage of Dry Weight
Organic S [1]: 0.11 Percentage of Dry Weight
Protein N [1]: 0.96 Percentage of Dry Weight
Inorganic S [2]: 0.003 Percentage of Dry Weight
Leaf Dry Wt [2]: 2.4 g/plant
Nitrate N [2]: 1.37 Percentage of Dry Weight
Organic N [2]: 2.21 Percentage of Dry Weight
Organic S [2]: 0.12 Percentage of Dry Weight
Protein N [2]: 1.28 Percentage of Dry Weight
Inorganic S [3]: 0.009 Percentage of Dry Weight
Leaf Dry Wt [3]: 3.4 g/plant
Nitrate N [3]: 0.06 Percentage of Dry Weight
Organic N [3]: 1.19 Percentage of Dry Weight
Organic S [3]: 0.17 Percentage of Dry Weight
Protein N [3]: 2.56 Percentage of Dry Weight
Inorganic S [4]: 0.100 Percentage of Dry Weight
Leaf Dry Wt [4]: 4.7 g/plant
Nitrate N [4]: 0.00 Percentage of Dry Weight
Organic N [4]: 0.51 Percentage of Dry Weight
Organic S [4]: 0.26 Percentage of Dry Weight
Protein N [4]: 3.25 Percentage of Dry Weight
Inorganic S [5]: 0.360 Percentage of Dry Weight
Leaf Dry Wt [5]: 4.7 g/plant
Nitrate N [5]: 0.10 Percentage of Dry Weight
Organic N [5]: 0.45 Percentage of Dry Weight
Organic S [5]: 0.25 Percentage of Dry Weight
Protein N [5]: 3.20 Percentage of Dry Weight

S1SSSSSSS1 [sulfur]
free nitrate nitrogen in plant leaves (available sulfur approximately 16.7 mg per liter): zero
optimal concentration of available sulfur in a fertilizer mixture (concentration at which free nitrate drops to zero and organic sulfur and protein nitrogen reach their maximum): approximately 16.7 mg per liter
